The values below come from patent US5219848A, “Cephem compounds” (ICI Pharma, priority 1989, dated 1993).

What all share (format): cell-based
Common to all, as to design: unit not given here
Holding throughout (settings): Isosensitest agar, 10^4 CFU/spot

In assay [1] the test system is P. aeruginosa PU21 (A8101028). Put plainly: MIC by agar-dilution, P. aeruginosa PU21 (A8101028). From the text:
(§1) The following results were obtained for representative compounds on a standard in vitro test system using Isosensitest agar medium. The antibacterial activity is described in terms of the minimum inhibitory concentration (MlC) determined by the agar-dilution technique with an inoculum size of 10^4 CFU/spot.

In assay [2] the test system is Ent. cloacae P99 (A8401054). The assay can be described thus: MIC by agar-dilution, Ent. cloacae P99 (A8401054).
Description: as §1

Assay [3] relates to Serr. marcesens (A8421003). Put plainly: MIC by agar-dilution, Serr. marcesens (A8421003).
Description: as §1

The test system of assay [4] is Pr. morganii (A8433001). The assay can be described thus: MIC by agar-dilution, Pr. morganii (A8433001).
Description: as §1

The subject of assay [5] is Kleb. oxytoca (A8395055). Put plainly: MIC by agar-dilution, Kleb. oxytoca (A8395055).
Description: as §1

Assay [6] deals with E. coli DCO (A8341098). The assay can be described thus: MIC by agar-dilution, E. coli DCO (A8341098).
Description: as §1

In assay [7] the test system is St. aureus 147N (A8601052). The assay can be described thus: MIC by agar-dilution, St. aureus 147N (A8601052).
Description: as §1

For assay [8], the system named is S. dublin (A8369001). Put plainly: MIC by agar-dilution, S. dublin (A8369001).
Description: as §1

For assay [9], the system named is Strep. pyogenes (A681018). Put plainly: MIC by agar-dilution, Strep. pyogenes (A681018).
Description: as §1

Take “7-[2-(2-Aminothiazol-4-yl)-2-((Z)-1-carboxy-1-methylethoxyimino)acetamido]- 3-(8-bromo-6,7-dihydroxy-3-oxo-tetrahydroisoquinolin-2-ylmethyl)ceph-3-em-4-carboxylic acid [Example 8]”: the MIC in assay [1] was found to be 0.008; in [2], 0.125; in assay [3], 0.06; in assay [4] it was 0.25; in assay [5], 0.015; in assay [6] it was 0.008. The MIC in [7] is recorded as 8; in assay [8] it was 0.03; in assay [9], 0.06.
